Experimental data published in PMC3776838, “Detection of Phospho-Sites Generated by Protein Kinase CK2 in CFTR: Mechanistic Aspects of Thr1471 Phosphorylation” (PLoS ONE, 2013).
“Also recorded” adds a separate entry of the source.

What was measured:
[1] = tested on: CFTR T1471A; assay: De novo synthesized CFTR level after CHX wash-out with CK2 inhibitor, T1471A; type: cell-based, human; settings: BHK cells; 2 h CHX 100 µg/mL, washed, then 2 µM CX4945 for 2, 4, 8 h; Western blot; vs vehicle; Figure 5B
Procedure: (§1) Baby hamster kidney cells (BHK) stably expressing human CFTR (hCFTR) either wild type (WT), or Phe508del, or WT T1471A were growth to reach 70–80% confluency. After 2 h-long treatment with 100 µg/mL cyclohexamide, cells were washed with PBS and incubated with 2 µM CX4945 or its vehicle for the indicated time. At each time-point cells were washed with ice-cold PBS, scraped from the plates, pelleted by centrifugation (1200 g for 5 min at room tempertaure) and lysed in a buffer containing 1% (v/v) Nonidet P40, 50 mM Tris/HCl (pH 7.5) and 150 mM NaCl with fresh protease inhibitor tablets (Roche), 1 µM Okadaic acid (Alexis) and phosphatases inhibitors cocktails 2 and 3 (Sigma). Cells were lysed by incubation on ice for 30 min and then the lysates were cleared by centrifugation at 17000 g for 30 min at 4°C. The supernatant was collected and subjected to protein concentration quantification.
(§2) Western blot analysis was performed as described in [14] using a modified Laemmli buffer containing 105 mM dithiothreitol (final concentration) to enhance the solubilization of CFTR. […] Immunoblots were developed by enhanced chemiluminescence, detected on Kodak Image Station 440 cf and analyzed by the Kodak 1D image software. […]

[2] = tested on: CK2; set-up: method as in PMID 21870818; settings: ref [43]; cited from earlier work
[3] = tested on: CFTR wild type; assay: De novo synthesized CFTR level after CHX wash-out with CK2 inhibitor, wild type; type: cell-based, human; settings: BHK cells, 2 h CHX 100 µg/mL, washed, then 2 µM CX4945 for 2, 4, 8 h, Western blot, vs vehicle, Figure 5A
Procedure: as §1, §2

[4] = tested on: Phe508delCFTR; assay: De novo synthesized CFTR level after CHX wash-out with CK2 inhibitor, Phe508del; type: cell-based, human; settings: BHK cells, washed; for effect on de novo synthesis / accumulation of Phe508delCFTR: 2 h CHX 100 µg/mL, then 2 µM CX4945 for 2, 4, 8 h, Western blot, vs vehicle, Figure 5C
Procedure: as §1
Western blot analysis was performed as described in [14] using a modified Laemmli buffer containing 105 mM dithiothreitol (final concentration) to enhance the solubilization of CFTR. 20–30 µg of total proteins were separated on 4–12% precast NuPage® Bis-Tris gradient gels (Invitrogen) according to the manufacturer’s instructions and transferred on to Optitran BA-S 83 nitrocellulose membranes (Whatman) with a semi-dry blotter (Biometra) for 1 h at 150 mA. Membranes were saturated for 1 h with 5% skimmed milk in Tris-buffered saline (TBS) containing 0.2% Tween 20. Immunoblots were developed by enhanced chemiluminescence, detected on Kodak Image Station 440 cf and analyzed by the Kodak 1D image software. […]
In order to evaluate the efficacy of CX4945 on the level of de novo synthesized CFTR, protein synthesis was inhibited by two hours cell treatment with cycloheximide (CHX). Blockade was then removed by washing off CHX and newly synthesized CFTR was quantified after 2, 4, and 8 hrs incubation either in the absence or presence of CX4945. […] This point has been corroborated by performing the experiment in triplicate and drawing from it quantification of Phe508delCFTR band B, as reported in Panel D.

## O=C(O)c1ccc2c(c1)nc(Nc1cccc(Cl)c1)c1ccncc12 [CX4945]
[1]
  effect on de novo synthesis of CFTR T1471A: a similar effect of CX4945 being also detectable; also recorded: a similar effect of CX4945 was observed with CFTR wild type and its T1471A mutant
[2]
  selectivity for CK2: the most selective CK2 inhibitor available to date
[3]
  effect on de novo synthesis / accumulation of CFTR wild type: accumulates more abundantly than in the absence of CK2 inhibitor; also recorded: de novo synthesis of CFTR wild type is significantly stimulated
[3]; listed as CX-4945
  effect on de novo synthesis / accumulation of CFTR wild type: the re-appearance of CFTR reached higher levels
[4]
  effect on de novo synthesis / accumulation of Phe508delCFTR: the efficacy of inhibiting CK2 is enhanced
[4]; listed as CX-4945
  effect on de novo synthesis / accumulation of Phe508delCFTR: definitely more pronounced in the case of Phe508delCFTR
[4]; 2 h CHX, then 2 µM CX4945 vs vehicle, Western blot quantitation, experiments in triplicate, Figure 5D
  increment of Phe508delCFTR band B: two to three
